Patent publication US20160279110A1, “COMPOSITIONS AND METHODS FOR TREATING CANCER” (UNIVERSITY OF ROCHESTER, priority 2015, published 2016)

Tested on: NMD
Experiment: mRNA/pre-mRNA ratio of NMD targets by RT-qPCR in MCF7 cells
Format: cell-based, human
Details: MCF7, 5 μM doxorubicin
Method: In FIG. 9a, MCF7 cells were treated with […] doxorubicin for the hours (h) indicated. mRNA-to-pre-mRNA ratios for the specified transcripts were measured using RT-qPCR and normalized to the ratio at 0 h, which is defined as 100%. The level of each pre-mRNA was also normalized to the level of GAPDH mRNA, and the normalized level at 0 h is defined as 100%. There are separate scales for the graphs of mRNA/pre-mRNA ratios (left) and the graphs of pre-mRNA/GAPDH mRNA ratios (right). Separately, MCF7 cells were transfected with plasmids encoding reporter β-Gl Norm mRNA or β-Gl Ter mRNA together with a plasmid encoding the reference MUP mRNA and subsequently exposed to doxorubicin (5 μM) for the times indicated. Reporter transcript levels were normalized to the level of MUP mRNA, and the normalized level of β-Gl Ter mRNA was presented as a percentage of the normalized level of β-Gl Norm mRNA, which is defined as 100% at 0 h. Error bars=S.E.M., asterisk=p<0.05 relative to the 0 h time point using the Student's t-test. #=pre-mRNA levels below qPCR detection threshold. n>3 independent biological replicates. […] HeLa and MCF7 cells were transfected with either control (Ctrl) siRNA or UPF1 siRNA, the latter to deplete endogenous UPF1 protein to less than 5% of the normal level (top western blots). mRNA/pre-mRNA ratios were then assessed using RT-qPCR as in FIG. 1a (bottom). Western blots derive from and are representative of 3 independent biological replicates used for the corresponding RT-qPCR analyses. Error bars=S.E.M., asterisk=p<0.05 relative to control siRNA using the Student's t-test. n=3 independent biological replicates.
Cells were homogenized, and RNA was purified using RNeasy mini kits (Qiagen). To ensure linearity of both reverse transcription (RT) and qPCR analyses, 17 standard concentrations were constructed using two-fold serial dilutions of total-cell RNA, beginning with 2 μg. Experimental sample input was 200 ng of RNA. RT was conducted using Superscript III (Invitrogen) according to manufacturer's directions and 100 ng of random hexamer (Invitrogen) in a 20 μl reaction volume. Thermal cycling was as follows: 25° C. for 5 min; 42° C. for 60 min; 50° C. for 60 min; and 75° C. for 10 min. Reactions were diluted to a final volume of 80 μl with water and used for qPCR.
qPCR was conducted using FAST SYBR green master mix (ABI; Foster City, Calif.) according to manufacturer's directions. […]
The stability of a panel of known NMD target mRNAs in human MCF7 breast cancer cells during doxorubicin treatment was examined. […] To support this, the level of each mRNA was measured relative to the level of the pre-mRNA from which it derives as a function of time after doxorubicin treatment to control for transcriptional effects. […]

COc1cccc2c1C(=O)c1c(O)c3c(c(O)c1C2=O)C[C@@](O)(C(=O)CO)C[C@@H]3O[C@H]1C[C@H](N)[C@H](O)[C@H](C)O1 [doxorubicin, Doxorubicin]
mRNA/pre-mRNA ratio of PANK2, TSTD2, NAT9: increases for all three transcripts
CDKN1A mRNA/pre-mRNA ratio increase relative to 0 h (5 h): ~5.7 fold
CDKN1A pre-mRNA level decrease (5 h): ~3.2 fold
mRNA/pre-mRNA ratios of CDKN1A, GADD45α, and GADD45β (by 5 h): significantly increased
